Source: patent publication US8415469B2, “Compounds and methods for kinase modulation, and indications therefor” (Plexxikon Inc., priority 2005, dated 2013)

Columns and labels:
Format in all cases: biochemical
Kit = molecular target: T1, Kit (Homo sapiens, UniProt P10721); test: AlphaScreen kinase assay, Kit; details: read-out: IC50, activity toward kinase Kit
T1 construct: P1332.N6 BI PTP KIT M552-K948-X COD; His6 (N); made in house; host or cells: E. coli (PTP1B co-expressed)

p38 = molecular target: T2, p38 (Homo sapiens, UniProt Q16539); test: AlphaScreen kinase assay, p38; details: read-out: IC50, activity toward kinase p38
T2 construct: P4292.pET15S P38A M1-S360-X MKK6DD; His6 with thrombin site (N); made in house
T2 sequence (Q16539 with tags, fused parts or gaps): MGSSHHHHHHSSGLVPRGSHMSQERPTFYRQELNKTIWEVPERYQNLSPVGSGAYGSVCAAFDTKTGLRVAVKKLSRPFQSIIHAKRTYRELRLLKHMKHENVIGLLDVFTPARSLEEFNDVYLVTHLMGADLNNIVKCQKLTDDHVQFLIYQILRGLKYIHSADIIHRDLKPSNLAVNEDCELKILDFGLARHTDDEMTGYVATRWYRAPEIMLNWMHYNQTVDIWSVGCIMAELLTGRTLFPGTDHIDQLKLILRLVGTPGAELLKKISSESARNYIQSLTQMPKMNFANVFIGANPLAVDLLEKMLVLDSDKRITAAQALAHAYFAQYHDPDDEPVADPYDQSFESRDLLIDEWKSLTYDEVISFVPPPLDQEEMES
From the text: AlphaScreen assay was used to screen additional kinases. The assay is similarly dependent on the phosphorylation of a peptide substrate. In this assay, an antibody that recognizes phosphorylated substrate is bound to an acceptor bead. The peptide substrate is attached to biotin, which binds to a donor head that contains streptavidin. Thus phosphorylated substrate is bound by antibody and streptavidin, bringing the donor and acceptor heads into close proximity when kinase is not inhibited. The donor produces singlet oxygen which results in emission from the acceptor when they are in close proximity. Conversely, when kinase is inhibited, the donor and acceptor beads are not associated and the emission from the acceptor is reduced.
AlphaScreen assays were done using compounds dissolved in DMSO to a concentration of 20 mM. The compounds were diluted accordingly to the desired final concentrations in each sample well, using 1:3 serial dilution for a total of 8 concentration points. Plates were prepared such that each kinase reaction is 20 μl in 1× kinase buffer, 5% DMSO and 10 μM ATP. After incubation of the kinase reaction for 1 hour at room temperature, 5 μl of donor beads in stop buffer (50 mM EDTA in 1× kinase buffer) was added, the sample was mixed and incubated for 20 minutes at room temperature before adding 5 μl of acceptor beads in stop buffer. The samples were incubated for 60 minutes at room temperature and the signal per well was read on AlphaQuest reader.

Abl = molecular target: T3, Abl (Homo sapiens, UniProt P00519); test: AlphaScreen kinase assay, Abl; details: read-out: activity toward kinase Abl, IC50
T3 construct: P1121. pET-SPEC BI-PTP Abl G227-V515-X; His6 (N); made in house; host or cells: E. coli (PTP1B co-expressed)
T3 sequence (P00519 with tags, fused parts or gaps): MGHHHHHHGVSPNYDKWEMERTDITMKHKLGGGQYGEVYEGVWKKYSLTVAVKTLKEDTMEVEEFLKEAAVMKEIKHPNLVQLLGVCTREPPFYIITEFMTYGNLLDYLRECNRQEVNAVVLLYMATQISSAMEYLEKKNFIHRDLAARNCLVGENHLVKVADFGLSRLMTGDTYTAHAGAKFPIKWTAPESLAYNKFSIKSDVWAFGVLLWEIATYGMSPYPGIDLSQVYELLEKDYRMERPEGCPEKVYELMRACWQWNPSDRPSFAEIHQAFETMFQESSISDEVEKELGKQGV
Outline: (§1)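 Uses phospho-specific antibody on acceptor beads plus streptavidin donor beads capturing biotinylated peptide substrate; singlet oxygen from donor excites nearby acceptor. Inhibitors tested in 8-point, 1:3 titrations starting from 20 mM DMSO solutions.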

Flt4 = molecular target: T4, Flt4 (Homo sapiens, UniProt P35916); test: AlphaScreen kinase assay, Flt4; details: read-out: IC50, activity toward kinase Flt4
T4 construct: purchased ProQinase GmbH (Freiburg, Germany)
T4 sequence (P35916 25-1363): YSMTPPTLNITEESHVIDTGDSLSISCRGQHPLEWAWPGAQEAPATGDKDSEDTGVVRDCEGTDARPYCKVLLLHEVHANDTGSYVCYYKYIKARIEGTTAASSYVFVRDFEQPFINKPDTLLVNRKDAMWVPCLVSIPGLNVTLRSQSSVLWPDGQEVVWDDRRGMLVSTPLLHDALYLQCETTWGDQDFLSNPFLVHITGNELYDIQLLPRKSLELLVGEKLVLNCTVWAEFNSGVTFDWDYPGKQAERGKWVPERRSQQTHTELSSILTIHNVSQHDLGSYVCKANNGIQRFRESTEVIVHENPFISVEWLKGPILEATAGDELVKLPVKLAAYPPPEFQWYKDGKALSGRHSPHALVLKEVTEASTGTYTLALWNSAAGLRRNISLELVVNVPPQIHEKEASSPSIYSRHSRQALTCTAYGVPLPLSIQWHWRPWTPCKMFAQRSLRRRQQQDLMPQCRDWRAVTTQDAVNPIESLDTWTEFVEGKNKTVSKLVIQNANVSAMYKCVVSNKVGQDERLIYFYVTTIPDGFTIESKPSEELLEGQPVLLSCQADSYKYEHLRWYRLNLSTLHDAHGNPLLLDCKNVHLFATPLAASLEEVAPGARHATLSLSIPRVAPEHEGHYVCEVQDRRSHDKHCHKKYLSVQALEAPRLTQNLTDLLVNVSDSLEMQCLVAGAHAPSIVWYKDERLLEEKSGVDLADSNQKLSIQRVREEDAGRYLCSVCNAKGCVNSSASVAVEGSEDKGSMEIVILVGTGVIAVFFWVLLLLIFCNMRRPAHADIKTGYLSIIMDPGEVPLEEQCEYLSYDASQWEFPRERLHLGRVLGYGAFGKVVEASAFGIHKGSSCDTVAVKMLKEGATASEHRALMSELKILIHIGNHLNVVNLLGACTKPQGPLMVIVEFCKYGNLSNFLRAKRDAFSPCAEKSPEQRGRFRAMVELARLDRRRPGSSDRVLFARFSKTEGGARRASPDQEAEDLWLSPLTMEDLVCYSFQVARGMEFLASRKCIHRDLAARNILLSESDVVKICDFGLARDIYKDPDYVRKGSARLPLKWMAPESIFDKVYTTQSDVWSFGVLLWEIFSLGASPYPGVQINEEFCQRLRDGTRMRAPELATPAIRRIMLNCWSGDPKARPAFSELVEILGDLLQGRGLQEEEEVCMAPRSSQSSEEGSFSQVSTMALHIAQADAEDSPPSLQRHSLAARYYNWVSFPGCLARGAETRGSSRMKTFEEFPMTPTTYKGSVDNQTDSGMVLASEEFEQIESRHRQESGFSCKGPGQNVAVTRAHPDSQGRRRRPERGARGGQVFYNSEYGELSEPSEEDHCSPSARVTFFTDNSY
Outline: as §1

Flt1 = molecular target: T5, Flt1 (Homo sapiens, UniProt P17948); test: AlphaScreen kinase assay, Flt1; details: read-out: IC50, activity toward kinase Flt1
T5 construct: P1826.pETN6 BI-PTP FLT1 M799-D1165-X WT; His6 (N); made in house; host or cells: E. coli (PTP1B co-expressed)
T5 sequence (P17948 with tags, fused parts or gaps): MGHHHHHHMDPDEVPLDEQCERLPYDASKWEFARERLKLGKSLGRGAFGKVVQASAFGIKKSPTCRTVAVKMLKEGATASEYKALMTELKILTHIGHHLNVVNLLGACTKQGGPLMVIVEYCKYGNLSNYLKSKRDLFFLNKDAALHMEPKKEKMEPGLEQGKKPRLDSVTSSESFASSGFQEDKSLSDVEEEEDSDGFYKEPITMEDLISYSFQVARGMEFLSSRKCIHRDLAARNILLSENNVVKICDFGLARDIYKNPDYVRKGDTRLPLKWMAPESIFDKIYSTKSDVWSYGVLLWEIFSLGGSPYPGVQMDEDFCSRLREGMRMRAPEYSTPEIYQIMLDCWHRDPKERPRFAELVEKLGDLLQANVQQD

Kdr = molecular target: T6, Kdr (Homo sapiens, UniProt P35968); test: Z'-Lyte FRET kinase assay (Invitrogen), Kdr; details: read-out: IC50, activity toward kinase Kdr
T6 construct: purchased Invitrogen (assay run by Invitrogen)
T6 sequence (P35968 20-1356): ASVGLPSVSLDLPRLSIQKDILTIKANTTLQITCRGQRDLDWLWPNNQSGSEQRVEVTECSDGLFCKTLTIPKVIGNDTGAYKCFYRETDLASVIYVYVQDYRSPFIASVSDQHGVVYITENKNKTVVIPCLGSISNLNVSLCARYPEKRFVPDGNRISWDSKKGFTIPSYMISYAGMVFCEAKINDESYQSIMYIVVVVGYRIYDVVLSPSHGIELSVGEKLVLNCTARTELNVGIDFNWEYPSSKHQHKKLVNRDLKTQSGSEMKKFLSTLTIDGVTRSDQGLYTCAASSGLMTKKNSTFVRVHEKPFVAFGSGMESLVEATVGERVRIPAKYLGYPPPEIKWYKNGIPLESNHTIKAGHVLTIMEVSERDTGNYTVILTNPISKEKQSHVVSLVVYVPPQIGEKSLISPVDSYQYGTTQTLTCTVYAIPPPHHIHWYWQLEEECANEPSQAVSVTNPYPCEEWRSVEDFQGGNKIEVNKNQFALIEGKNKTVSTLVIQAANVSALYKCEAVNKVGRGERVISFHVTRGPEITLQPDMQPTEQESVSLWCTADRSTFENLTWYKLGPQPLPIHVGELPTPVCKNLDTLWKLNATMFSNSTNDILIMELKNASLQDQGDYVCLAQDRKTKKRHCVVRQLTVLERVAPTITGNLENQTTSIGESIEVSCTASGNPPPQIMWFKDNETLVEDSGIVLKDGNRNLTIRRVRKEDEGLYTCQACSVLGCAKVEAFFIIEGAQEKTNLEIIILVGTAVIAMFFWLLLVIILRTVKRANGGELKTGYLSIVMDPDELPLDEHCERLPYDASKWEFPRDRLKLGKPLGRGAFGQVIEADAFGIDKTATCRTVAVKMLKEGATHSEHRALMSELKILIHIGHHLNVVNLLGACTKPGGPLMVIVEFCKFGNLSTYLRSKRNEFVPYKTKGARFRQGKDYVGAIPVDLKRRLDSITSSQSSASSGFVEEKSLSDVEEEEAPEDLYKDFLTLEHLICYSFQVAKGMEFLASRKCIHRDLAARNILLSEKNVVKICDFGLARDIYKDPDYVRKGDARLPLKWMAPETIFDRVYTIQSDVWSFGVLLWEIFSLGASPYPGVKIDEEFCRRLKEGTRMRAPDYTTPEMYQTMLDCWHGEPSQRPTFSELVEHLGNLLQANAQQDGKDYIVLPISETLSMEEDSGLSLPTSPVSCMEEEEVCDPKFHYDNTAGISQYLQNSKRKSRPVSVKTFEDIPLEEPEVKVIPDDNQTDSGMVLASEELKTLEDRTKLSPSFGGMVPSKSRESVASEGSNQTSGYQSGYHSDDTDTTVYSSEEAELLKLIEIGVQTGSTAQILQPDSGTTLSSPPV

FGFR1 = molecular target: T7, FGFR1 (Homo sapiens, UniProt P11362, C488A/C584S); test: AlphaScreen kinase assay, FGFR1; details: read-out: IC50, activity toward kinase FGFR
T7 construct: P1351.pET N6 BI-PTP FGFR A458-E765-X C488A, C584S; made in house; host or cells: E. coli (PTP1B co-expressed)
T7 sequence (P11362 458-765 C488A/C584S): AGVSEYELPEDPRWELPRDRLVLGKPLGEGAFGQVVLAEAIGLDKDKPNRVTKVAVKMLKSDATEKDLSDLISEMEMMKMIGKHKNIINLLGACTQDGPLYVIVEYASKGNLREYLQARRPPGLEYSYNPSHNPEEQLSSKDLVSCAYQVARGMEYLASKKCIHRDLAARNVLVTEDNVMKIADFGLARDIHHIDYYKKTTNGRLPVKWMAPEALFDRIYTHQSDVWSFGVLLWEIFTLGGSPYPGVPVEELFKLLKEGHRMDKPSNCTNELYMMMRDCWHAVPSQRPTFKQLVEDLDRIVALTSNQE

Ret = molecular target: T8, Ret (Homo sapiens, UniProt P07949); test: AlphaScreen kinase assay, Ret; details: read-out: IC50, activity toward kinase Ret
T8 construct: P1378.pET-SF BI-PTP RET H661-R1012 HIS; made in house
T8 sequence (P07949 with tags, fused parts or gaps): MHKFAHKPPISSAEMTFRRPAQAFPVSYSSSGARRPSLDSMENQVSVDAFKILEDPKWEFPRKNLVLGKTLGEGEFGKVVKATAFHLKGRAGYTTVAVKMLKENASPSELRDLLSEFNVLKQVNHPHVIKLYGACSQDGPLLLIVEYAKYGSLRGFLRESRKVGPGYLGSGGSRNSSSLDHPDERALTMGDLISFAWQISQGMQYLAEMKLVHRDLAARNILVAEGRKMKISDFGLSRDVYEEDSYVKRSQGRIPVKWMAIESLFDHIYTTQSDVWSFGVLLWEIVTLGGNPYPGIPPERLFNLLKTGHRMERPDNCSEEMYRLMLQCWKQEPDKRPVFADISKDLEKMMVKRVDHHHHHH

IKK beta = molecular target: T9, IKK beta (Homo sapiens, UniProt O14920); test: AlphaScreen kinase assay, IKK beta; details: read-out: IC50, activity toward kinase IKK beta
T9 sequence (O14920 1-756): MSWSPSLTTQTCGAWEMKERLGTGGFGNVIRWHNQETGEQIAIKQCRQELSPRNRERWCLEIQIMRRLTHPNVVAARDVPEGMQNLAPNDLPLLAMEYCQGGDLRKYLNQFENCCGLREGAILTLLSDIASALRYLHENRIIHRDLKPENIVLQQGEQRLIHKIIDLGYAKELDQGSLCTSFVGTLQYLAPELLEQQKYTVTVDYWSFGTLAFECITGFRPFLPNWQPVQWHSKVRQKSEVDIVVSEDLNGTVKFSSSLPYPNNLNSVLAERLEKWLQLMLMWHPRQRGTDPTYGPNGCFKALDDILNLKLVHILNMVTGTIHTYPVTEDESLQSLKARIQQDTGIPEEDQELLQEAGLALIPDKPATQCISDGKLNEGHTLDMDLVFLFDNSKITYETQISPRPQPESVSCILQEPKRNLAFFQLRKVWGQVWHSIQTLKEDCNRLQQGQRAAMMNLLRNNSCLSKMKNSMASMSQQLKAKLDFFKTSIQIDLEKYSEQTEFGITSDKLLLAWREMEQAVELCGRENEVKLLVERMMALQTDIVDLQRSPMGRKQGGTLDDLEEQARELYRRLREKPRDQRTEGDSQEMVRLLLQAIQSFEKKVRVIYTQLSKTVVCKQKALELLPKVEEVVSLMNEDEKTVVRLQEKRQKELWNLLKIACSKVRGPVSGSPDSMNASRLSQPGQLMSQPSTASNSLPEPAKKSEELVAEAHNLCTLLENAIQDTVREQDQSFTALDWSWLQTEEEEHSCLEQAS

MAP2K1 = molecular target: T10, MAP2K1 (Homo sapiens, UniProt Q02750); test: Z'-Lyte FRET kinase assay (Invitrogen), MAP2K1; details: read-out: IC50, activity toward kinase MAP2K1
T10 construct: purchased Invitrogen (assay run by Invitrogen)
T10 sequence (Q02750 whole entry): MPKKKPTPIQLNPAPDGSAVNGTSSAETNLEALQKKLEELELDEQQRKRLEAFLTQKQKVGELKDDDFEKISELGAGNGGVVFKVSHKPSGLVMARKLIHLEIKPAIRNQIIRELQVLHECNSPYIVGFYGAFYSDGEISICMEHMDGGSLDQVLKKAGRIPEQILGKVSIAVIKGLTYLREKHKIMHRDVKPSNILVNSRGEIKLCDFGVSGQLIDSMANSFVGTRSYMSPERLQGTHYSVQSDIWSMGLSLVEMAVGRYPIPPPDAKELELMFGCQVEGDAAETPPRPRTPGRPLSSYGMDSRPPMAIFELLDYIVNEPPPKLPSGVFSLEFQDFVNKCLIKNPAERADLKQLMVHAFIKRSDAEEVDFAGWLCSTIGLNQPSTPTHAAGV
From the text: For example, direct radiometric, indirect FRET or AlphaScreen assays may be used to assess the level of phosphorylation of a substrate in the presence of test compounds in order to determine the inhibitory affect of the compound on the kinase. […] For these assays, compounds of the invention were screened by Invitrogen using Z′-Lyte™ kinase assay.
Briefly, the Invitrogen kinase assay involves use of a specific peptide substrate optimized for each kinase, containing a fluorophore at each end that make up the FRET pair. The peptide sensitivity to proteolytic cleavage depends on phosphorylation of the peptide. Non-phosphorylated peptide is cleaved by a protease while peptide phosphorylated by the kinase is not cleaved. Cleavage of the peptide disrupts the FRET between the donor (coumarin) and acceptor (fluorescein) fluorophores, resulting in an increase in the ratio of donor emission to acceptor emission. The emission ratio of coumarin to fluorescein is used to assess the reaction progress. […] Thus, the assay involves a kinase reaction in the presence of varying concentrations of a given compound, a development reaction with site specific protease, and detection of the fluorescent emission ratio of coumarin and fluorscein. […] Reaction conditions for each kinase are determined to provide optimal reaction times, incubation temperature, kinase and ATP concentrations. Test samples are made up in 1× kinase buffer (50 mM HEPES pH 7.5, 50 mM MgCl2, 5 mM EGTA, 0.05% BRIJ-35) and compound at desired concentration prepared in DMSO such that the final DMSO is 1%. […] All kinase except for MAP2K1 were at 10 μM ATP in the kinase reaction, while MAP2K1 was at 100 μM. Samples are mixed and the kinase reaction is incubated 1 hour at room temperature, after which 5 μl of development solution is added and mixed. After incubation for another 1 hour at room temperature, 5 μl of stop reagent is added to each sample and mixed. The fluorescence signals are measured to determine the emission ratio.

Irak4 = molecular target: T11, Irak4 (Homo sapiens, UniProt Q9NWZ3); test: Z'-Lyte FRET kinase assay (Invitrogen), Irak4; details: read-out: IC50, activity toward kinase Irak4
T11 construct: purchased Invitrogen (assay run by Invitrogen)
T11 sequence (Q9NWZ3 1-460): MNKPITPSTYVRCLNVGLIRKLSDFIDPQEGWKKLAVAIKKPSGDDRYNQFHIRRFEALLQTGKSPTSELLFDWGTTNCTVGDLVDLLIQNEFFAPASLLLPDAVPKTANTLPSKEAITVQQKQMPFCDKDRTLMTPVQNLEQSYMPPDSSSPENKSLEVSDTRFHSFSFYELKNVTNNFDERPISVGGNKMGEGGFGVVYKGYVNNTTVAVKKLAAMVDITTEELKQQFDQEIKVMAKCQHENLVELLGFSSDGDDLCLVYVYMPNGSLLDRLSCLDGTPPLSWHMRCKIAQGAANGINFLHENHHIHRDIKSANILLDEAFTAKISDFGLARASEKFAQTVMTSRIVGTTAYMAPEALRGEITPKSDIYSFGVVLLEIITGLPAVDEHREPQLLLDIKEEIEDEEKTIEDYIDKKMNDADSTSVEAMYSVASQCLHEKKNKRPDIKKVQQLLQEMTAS
From the text: The effect of potential modulators of kinase activity can be measured in a variety of different assays known in the art. For example, direct radiometric, indirect FRET or AlphaScreen assays may be used to assess the level of phosphorylation of a substrate in the presence of test compounds in order to determine the inhibitory affect of the compound on the kinase. Invitrogen (Carlsbad, Calif.) uses a FRET based assay for Btk, EGFR, EphB2, Flt3, lrak4, Kdr, MAP2K1, MAPKAPK2, PDGFRB, PKC theta, Stk6 and Yes. For these assays, compounds of the invention were screened by Invitrogen using Z′-Lyte™ kinase assay.
Briefly, the Invitrogen kinase assay involves use of a specific peptide substrate optimized for each kinase, containing a fluorophore at each end that make up the FRET pair. The peptide sensitivity to proteolytic cleavage depends on phosphorylation of the peptide. Non-phosphorylated peptide is cleaved by a protease while peptide phosphorylated by the kinase is not cleaved. Cleavage of the peptide disrupts the FRET between the donor (coumarin) and acceptor (fluorescein) fluorophores, resulting in an increase in the ratio of donor emission to acceptor emission. The emission ratio of coumarin to fluorescein is used to assess the reaction progress. The extent of phosphorylation is determined from the emission ratio, which is low when the kinase is active (phosphorylated peptide is not cleaved, FRET pair connected) or higher for inhibited kinase (non-phosphorylated peptide is cleaved, FRET pair separated). Thus, the assay involves a kinase reaction in the presence of varying concentrations of a given compound, a development reaction with site specific protease, and detection of the fluorescent emission ratio of coumarin and fluorscein. […] Reaction conditions for each kinase are determined to provide optimal reaction times, incubation temperature, kinase and ATP concentrations. Test samples are made up in 1× kinase buffer (50 mM HEPES pH 7.5, 50 mM MgCl2, 5 mM EGTA, 0.05% BRIJ-35) and compound at desired concentration prepared in DMSO such that the final DMSO is 1%. […] Typically, assay plates are prepared to 10 μl final volume per sample, adding 2.5 μl of compound at 4× the desired concentration in 4% DMSO (serial dilution of compound provides concentration curve), 5 μl of the desired kinase mixed with Z′-LYTE™ peptide substrate (2× in 2× kinase buffer, final peptide at 2 μM), and 2.5 μl of 4×ATP solution. All kinase except for MAP2K1 were at 10 μM ATP in the kinase reaction, while MAP2K1 was at 100 μM. Samples are mixed and the kinase reaction is incubated 1 hour at room temperature, after which 5 μl of development solution is added and mixed. After incubation for another 1 hour at room temperature, 5 μl of stop reagent is added to each sample and mixed. The fluorescence signals are measured to determine the emission ratio.

Stk6 = molecular target: T12, Stk6 (Homo sapiens, UniProt O14965); test: Z'-Lyte FRET kinase assay (Invitrogen), Stk6; details: read-out: IC50, activity toward kinase Stk6
T12 construct: purchased Invitrogen (Carlsbad, Calif.), screening service
T12 sequence (O14965 1-403): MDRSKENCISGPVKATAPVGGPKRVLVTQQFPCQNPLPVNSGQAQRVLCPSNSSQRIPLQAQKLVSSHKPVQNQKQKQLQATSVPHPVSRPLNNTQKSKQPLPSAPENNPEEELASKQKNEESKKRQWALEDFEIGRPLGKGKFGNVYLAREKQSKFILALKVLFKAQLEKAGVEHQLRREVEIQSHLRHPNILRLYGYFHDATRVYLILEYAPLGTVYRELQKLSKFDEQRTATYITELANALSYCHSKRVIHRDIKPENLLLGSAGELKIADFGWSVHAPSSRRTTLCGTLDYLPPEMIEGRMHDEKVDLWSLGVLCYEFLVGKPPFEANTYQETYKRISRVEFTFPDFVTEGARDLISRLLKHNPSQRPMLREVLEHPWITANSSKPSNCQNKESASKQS

Measured: IC50

T1 sequence (P10721 with tags, fused parts or gaps): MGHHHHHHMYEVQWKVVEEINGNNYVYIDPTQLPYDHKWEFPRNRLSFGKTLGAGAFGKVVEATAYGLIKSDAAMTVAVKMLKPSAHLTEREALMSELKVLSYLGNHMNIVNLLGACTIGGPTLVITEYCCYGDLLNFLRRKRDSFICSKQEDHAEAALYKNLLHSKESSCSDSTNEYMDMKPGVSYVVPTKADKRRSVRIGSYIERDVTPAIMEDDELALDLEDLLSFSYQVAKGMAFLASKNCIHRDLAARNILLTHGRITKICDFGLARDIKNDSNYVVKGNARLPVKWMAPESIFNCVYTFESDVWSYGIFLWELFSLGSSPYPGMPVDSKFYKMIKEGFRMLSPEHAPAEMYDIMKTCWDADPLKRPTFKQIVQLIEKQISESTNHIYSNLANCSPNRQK

Brc1ccc(/C=C\c2c[nH]c3ncccc23)cc1 [Compound P-0511]
≤ 10 µM: Kit | p38

O=C(c1ccccc1F)c1c[nH]c2ncc(-c3cccnc3)cc12 [Compound P-0708]
≤ 10 µM: Abl | Flt4 | Flt1 | Kdr | Kit | p38 | FGFR1 | Ret

OCc1cccc(-c2c[nH]c3ncccc23)c1 [Compound P-0087]
≤ 10 µM: IKK beta | Kdr | MAP2K1 | Irak4 | Stk6
